Measurements published in publication PMC5115179 (Pharmacology Research & Perspectives, 2016).
Like-named read-outs stand apart in the source and are kept apart here.

How the values were obtained:
mouse = test system: mouse; set-up: method as in Martellotta et al., 1998; details: 12.5 mg/kg i.p., ref Martellotta et al., 1998; cited from earlier work
rat [1] = test system: rat; set-up: method as in Hicks et al., 2004; details: 50 mg/kg i.v., ref Hicks et al., 2004; cited from earlier work
rat [2] = test system: rat; set-up: method as in Pedraza et al., 2009; details: 10 mg/kg i.p., ref Pedraza et al., 2009; cited from earlier work
[3] = Excretion of NCS‐382 in urine and feces (metabolic cages); format: in vivo; details: mouse, pooled urine of 3 mice
Method: To ensure sufficient volumes of urine could be collected in each of the 2 h time intervals (baseline, 0–2, 2–4, 4–6, 6–8 h), three mice were dosed simultaneously and their urine and feces pooled for analysis. The total dose in μg administered to the three animals was therefore used to calculate the percent of the dose excreted in the urine pooled from all three mice. Animals were allowed ad libitum access to food and water of which the intake of each was monitored.
Samples (3 μL) were injected onto a Kinetex PFP (50 × 2.1 mm, 1.7 μm particle size) UPLC column and eluted with a binary gradient consisting of water with 0.1% formic acid (mobile phase A) and methanol with 0.1% formic acid (mobile phase B). […] Eluent was directed to waste for the initial 0.4 min then to an ABI Sciex 6500 Qtrap tandem mass spectrometer. […] Where necessary, samples were diluted in blank matrices for analysis.
Pharmacokinetic outcomes were obtained via standard noncompartmental methods using Kinetica (version 5.1, Thermo Fisher Scientific, Waltham, MA). The maximum concentration (C max) was obtained directly from the concentration–time profiles. Area under the concentration–time curve (AUC) from time zero to the last collected time point was determined using the trapezoidal method with linear up/log down interpolation.

[4] = NCS‐382–diclofenac interaction study (inhibition of NCS‐382 glucuronidation); details: mouse
Method: In this study, mice (n = 3–4 per group) were assigned (balanced for weight and gender) to one of three treatments and collected at one of three time points (0.5, 1, or 2 h).

in vivo = format: in vivo; details: mouse; for half-life / Kp / AUC / CL/F / Cmax: both sexes, ip; for Kp: C57/B6, brain/serum, read-out: Brain to sera AUC ratio
Method: In pharmacokinetic studies, mice were not randomized to groups but instead assigned to treatment and time points such that there was no gender of weight bias. Studies were initiated in the morning and following treatment mice were euthanized by CO2 asphyxiation and cervical dislocation at predetermined time points (0.25, 0.5, 1, 2, 4, 8, 12, and 24 h) (n = 3–4 animals per time point). Blood (via cardiac puncture), brain, liver, and kidney were rapidly collected, tissues were snap‐frozen in liquid nitrogen, and stored at −80°C prior to further analysis. Sera (20–100 μL) was obtained by low‐speed centrifugation at 2000 × g for 10 min at 6°C. Tissues were suspended in phosphate‐buffered saline (PBS, 1:5, w/v) and homogenized via mechanical homogenization before preparation for LC‐MS/MS analysis.
Samples (3 μL) were injected onto a Kinetex PFP (50 × 2.1 mm, 1.7 μm particle size) UPLC column and eluted with a binary gradient consisting of water with 0.1% formic acid (mobile phase A) and methanol with 0.1% formic acid (mobile phase B). Initially, 5% mobile phase B was held for 0.4 min at a flow rate of 0.3 mL/min, then increased linearly to 85% over 2.6 min. This composition was held constant for 0.5 min then returned to initial conditions within 6 sec and equilibrated for an additional 1.8 min. Eluent was directed to waste for the initial 0.4 min then to an ABI Sciex 6500 Qtrap tandem mass spectrometer. […] Where necessary, samples were diluted in blank matrices for analysis. Methods were developed using the criteria presented in the FDA bioanalytical guidance document (www.fda.gov, 2013).
Pharmacokinetic outcomes were obtained via standard noncompartmental methods using Kinetica (version 5.1, Thermo Fisher Scientific, Waltham, MA). The maximum concentration (C max) was obtained directly from the concentration–time profiles. Area under the concentration–time curve (AUC) from time zero to the last collected time point was determined using the trapezoidal method with linear up/log down interpolation. For sera and urine, data above the limit of detection but below the LLOQ were computed as LLOQ/2 (7 nmol/L, 7.5 μg/mL, respectively) to allow for the recovery of the terminal half‐life as reported previously (Beal 2001). To obtain estimates of variability around the mean of AUC and C max, the method of Bailer–Satterwaithe was employed due to the destructive sampling approach (Nedelman et al. 1995). Furthermore, as a result of the destructive sampling approach outcomes for half‐life, apparent volume of distribution and apparent clearance could not be reported with a term for uncertainty.

rat [5] = test system: rat; set-up: method as in Baker et al., 2008; details: rat, 25, 50, 100 mg/kg i.g.; ref Baker et al., 2008; cited from earlier work
rat [6] = test system: rat; set-up: method as in Poggioli et al., 1999; details: rat, 25, 100, 200 mg/kg p.o.; ref Poggioli et al., 1999; cited from earlier work
[7] = 100 mg/kg i.p., tissue density assumed equal to water
[8] = 300 mg/kg i.p., tissue density assumed equal to water
[9] = 500 mg/kg i.p., tissue density assumed equal to water

O=C(O)/C=C1\CCCc2ccccc2C1O (centres unmarked) [NCS‐382, 6,7,8,9‐tetrahydro‐5‐hydroxy‐5H‐benzo‐cyclohept‐6‐ylideneacetic acid]
abuse potential of GHB (mouse): GHB was shown to have abuse potential, which was blocked by NCS-382. | increase in heart rate induced by GHB (rat [1]): reversed the ↑ in heart rate | pressor response induced by GHB (rat [1]): not the pressor response | neurological damage and working-memory impairment induced by low-dose GHB (rat [2]): NCS-382 prevents both neurological damage and working- memory impairment induced by low-dose GHB. | total dose administered recovered unchanged in the urine over 8 h ([3]; 100 mg/kg): 0.1% | total dose administered recovered unchanged in the urine over 8 h ([3]; 300 mg/kg): 1.1% | total dose administered recovered unchanged in the urine over 8 h ([3]; 500 mg/kg): 3.3% | AUC(0-t) ([4]; both, in vivo, 300 mg/kg): 411 µM·h | Brain AUC0–2 h [90% CI] ([4]; treatment NCS‐382 300 mg/kg + Diclofenac 25 mg/kg): 182 [164–200] ^a nmol/g/tissue*h | Brain AUC0–2 h [90% CI] ([4]; treatment NCS‐382 300 mg/kg alone): 128 [115–141] nmol/g/tissue*h | half-life (in vivo; C57/B6, brain, 100 mg/kg i.p., read-out: Brain t 1/2 (converted)): 58 min | half-life (in vivo; C57/B6, brain, 300 mg/kg i.p., read-out: Brain t 1/2 (converted)): 53 min | half-life (in vivo; C57/B6, brain, 500 mg/kg i.p., read-out: Brain t 1/2 (converted)): 45.7 min | Kp (in vivo; 100 mg/kg i.p.): 1.2 | Kp (in vivo; 300 mg/kg i.p.): 0.72 | Kp (in vivo; 500 mg/kg i.p.): 1.8 | half-life (in vivo; C57/B6, kidney, 100 mg/kg i.p., read-out: Kidney t 1/2 (converted)): 18.5 min | AUC (in vivo; C57/B6, serum, 100 mg/kg i.p.): 119 ± 38 µM·h | CL/F (in vivo; C57/B6, serum, 100 mg/kg i.p.): 63.3 mL/min/kg | Cmax (in vivo; C57/B6, serum, 100 mg/kg i.p.): 241 ± 106 µM | half-life (in vivo; C57/B6, serum, 100 mg/kg i.p., read-out: Serum t 1/2 (converted)): 14.6 min | AUC (in vivo; C57/B6, serum, 300 mg/kg i.p.): 436 ± 42 µM·h | CL/F (in vivo; C57/B6, serum, 300 mg/kg i.p.): 52.5 mL/min/kg | Cmax (in vivo; C57/B6, serum, 300 mg/kg i.p.): 374 ± 49 µM | half-life (in vivo; C57/B6, serum, 300 mg/kg i.p., read-out: Serum t 1/2 (converted)): 28.1 min | AUC (in vivo; C57/B6, serum, 500 mg/kg i.p.): 717 ± 83 µM·h | CL/F (in vivo; C57/B6, serum, 500 mg/kg i.p.): 53.2 mL/min/kg | Cmax (in vivo; C57/B6, serum, 500 mg/kg i.p.): 451 ± 49 µM | half-life (in vivo; C57/B6, serum, 500 mg/kg i.p., read-out: Serum t 1/2 (converted)): 41 min | Serum V/F (in vivo; 100 mg/kg i.p.): 2.62 L/kg | time after administration up to which detectable in sera (in vivo; 100 mg/kg i.p.): up to 4 h | time after administration up to which quantifiable in brain (in vivo; 100 mg/kg i.p.): up to 8 h | time after administration up to which quantifiable in kidney (in vivo; 100 mg/kg i.p.): up to 4 h | time after administration up to which quantifiable in liver (in vivo; 100 mg/kg i.p.): up to 2 h | time after administration up to which quantifiable in sera (in vivo; 100 mg/kg i.p.): up to 2 h | Brain AUC (in vivo; [7]): 139 ± 60 µM·h | Brain Cmax (in vivo; [7]): 60 ± 9.5 µM | Kidney AUC (in vivo; [7]): 24.5 ± 5.3 µM·h | Kidney Cmax (in vivo; [7]): 23.6 ± 3.0 µM | Liver AUC (in vivo; [7]): 1150 ± 595 µM·h | Liver Cmax (in vivo; [7]): 1695 ± 2030 µM | Serum V/F (in vivo; 300 mg/kg i.p.): 2.93 L/kg | Brain AUC (in vivo; [8]): 313 ± 33 µM·h | Brain Cmax (in vivo; [8]): 141 ± 45 µM | Serum V/F (in vivo; 500 mg/kg i.p.): 4.25 L/kg | Brain AUC (in vivo; [9]): 1280 ± 175 µM·h | Brain Cmax (in vivo; [9]): 530 ± 70 µM | GHB's (300 mg/kg) discriminative stimulus effects (rat [5]): GHB's (300 mg/kg) discriminative stimulus effects were obliterated by the GABAB receptor antagonist, CGP-35348 and slightly attenuated by NCS 382. | gastric emptying (rat [6]): dose dependently, ↓ gastric emptying | prokinetic effect of GHB (rat [6]): antagonized the prokinetic effect of GHB
